Measured values as given in US20090099020A1, “Triazole-Based Fungicidal Mixtures” (BADF Aktiengesellschaft, priority 2005, published 2009).

System: Botrytis cinerea
Experiment: Activity against the gray mold pathogen Botrytis cinerea in the microtiter test (Botrci)
Assay type: cell-based
Conditions: single active, day 7 after inoculation
Method: The expected efficacies of active compound combinations were determined using Colby's formula (Colby, S. R. “Calculating synergistic and antagonistic responses of herbicide combinations”, Weeds, 15, 20-22, 1967) and compared with the observed efficacies.
E=x+y−x·y/100 • E expected efficacy, expressed in % of the untreated control, when using the mixture of the active compounds A and B at the concentrations a and b • x efficacy, expressed in % of the untreated control, when using the active compound A at the concentration a • y efficacy, expressed in % of the untreated control, when using the active compound B at the concentration b
The active compounds were formulated separately as a stock solution having a concentration of 10 000 ppm in DMSO.
The active compound epoxiconazole was used as a commercial formulation.
Use example No. 1—Activity against the gray mold pathogen Botrytis cinerea in the microtiter test (Botrci)
The stock solution is pipetted onto a microtiter plate (MTP) and diluted to the stated active compound concentration using a malt-based aqueous nutrient medium for fungi. An aqueous spore suspension of Botrytis cinerea was then added. The plates were placed in a water vapor-saturated chamber at temperatures of 18° C. Using an absorption photometer, the MTPs were measured at 405 nm on day 7 after the inoculation. The measured parameters were compared to the growth of the active compound-free control variant and the fungus- and active compound-free blank value to determine the relative growth in % of the pathogens in the individual active compounds.
The visually determined values for the percentage of infected leaf area were initially converted into a mean value and then converted into efficacies in % of the untreated control. An efficacy of 0 means the same degree of infection as in the untreated control, an efficacy of 100 means 0% infection. The expected efficacies for active compound combinations were determined using Colby's formula (Colby, S. R. (Calculating synergistic and antagonistic responses of herbicide combinations”, Weeds, 15, pp. 20-22, 1967) and compared to the observed efficacies.

Row | SMILES | Observed effect (%) (0.016 ppm) | Observed effect (%) (0.063 ppm) | Observed effect (%) (0.004 ppm) | Observed effect (%) (0.25 ppm)
1 | Fc1ccc(C2(Cn3cncn3)OC2c2ccccc2Cl)cc1 (stereo not shown) [Epoxiconazole, epoxiconazole] | 15 | 48 |  | 
2 | O=c1c2cc(F)ccc2nc(-n2cncn2)n1-c1ccc(Cl)cc1Cl [Fluquinconazole, fluquinconazole] |  |  | 0 | 0
